The values that follow come from PubChem BioAssay (NCI).

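How tested: cells in 96-well plates exposed to compound for 48 hours at five concentrations. The concentration for full growth arrest is given as TGI.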 Where a SMILES comes first, the peptide text is derived from it. The star is where a group is joined. Pentanoyl = CCCCC(=O)*; Boc = CC(C)(C)OC(=O)* Bounds are passed on as bounds.

Among the test systems are NCI-H23 lung; OVCAR-3 ovarian; OVCAR-5 ovarian; MDA-N; MCF7 breast; MDA-MB-231 breast; PC-3 prostate; UACC-62 melanoma; MOLT-4 leukemia; MALME-3M melanoma; SF-539 CNS; CAKI-1 renal; M14 melanoma; NCI-H522 lung; NCI-H460 lung; HCC-2998 colon; T-47D breast; SNB-19 CNS; HCT-116 colon; SR leukemia.
Holding throughout (assay): growth of human tumour cells (NCI), 48 h

In the case of `O=C1C(C(c2ccccc2)N2CCOCC2)=C(O)C(c2ccccc2)N1c1ccccc1` (stereo unspecified), the TGI in the assay with NCI-H23 lung, in the assay with OVCAR-3 ovarian, in the assay with OVCAR-5 ovarian, with MDA-N, in the assay on MCF7 breast and in the assay with MDA-MB-231 breast was more than 10 µM each time. Besides, the TGI in the assay on PC-3 prostate, in the assay on UACC-62 melanoma, with MOLT-4 leukemia, in the assay on MALME-3M melanoma, in the assay with SF-539 CNS and in the assay with CAKI-1 renal was more than 10 µM throughout. Also, the TGI with M14 melanoma, in the assay on NCI-H522 lung, in the assay with NCI-H460 lung, in the assay on HCC-2998 colon, with T-47D breast and in the assay on SNB-19 CNS was more than 10 µM each time. Also, the TGI with HCT-116 colon was more than 10 µM.

On to `CCCCC(=O)Oc1ccc(CC(NC(=O)OC(C)(C)C)C(=O)NC(C)C(=O)NC(Cc2ccccc2)C(=O)NCC(N)=O)cc1` (stereo unspecified) (Boc-Y(Pentanoyl)AFG-NH2; configuration not given here), for which the TGI in the assay with NCI-H23 lung was more than 100 µM; in the assay with OVCAR-3 ovarian, 39.2 µM; in the assay with OVCAR-5 ovarian it was 52 µM; in the assay on MDA-N it was 65.8 µM; in the assay with MCF7 breast, 41.8 µM; in the assay on MDA-MB-231 breast, 41.6 µM. The TGI in the assay on PC-3 prostate was more than 100 µM; in the assay on UACC-62 melanoma it was 45.5 µM; in the assay with MOLT-4 leukemia it was 54.2 µM; in the assay with MALME-3M melanoma, more than 100 µM; in the assay with SF-539 CNS it was more than 100 µM; in the assay on CAKI-1 renal, more than 100 µM. Besides, the TGI was more than 100 µM in the assay on M14 melanoma; 39.5 µM in the assay on NCI-H522 lung; more than 100 µM in the assay with NCI-H460 lung; 38.8 µM in the assay on HCC-2998 colon; 79 µM with T-47D breast; 59 µM in the assay on SNB-19 CNS. In addition, in the assay with HCT-116 colon, the TGI is 47.1 µM.

As to `CN(C)c1nc2n(CCO)c(-c3ccccc3)c(-c3ccccc3)nc-2c(=O)n1`, the TGI with NCI-H23 lung, with OVCAR-3 ovarian, with OVCAR-5 ovarian, in the assay with MDA-N, in the assay on MDA-MB-231 breast and in the assay with PC-3 prostate was more than 100 µM throughout. For the same compound, the TGI in the assay with UACC-62 melanoma, with MOLT-4 leukemia, with MALME-3M melanoma, in the assay with SF-539 CNS, in the assay on CAKI-1 renal and with M14 melanoma was more than 100 µM each time. Moreover, the TGI with NCI-H522 lung, with NCI-H460 lung, with HCC-2998 colon, in the assay with T-47D breast, in the assay with SNB-19 CNS and in the assay with HCT-116 colon was more than 100 µM in each case. The compound further gave a TGI in the assay on SR leukemia of more than 100 µM.

Regarding `CC(=O)OC(C)c1cc2c(s1)C(=O)c1scc(C(C)OC(C)=O)c1C2=O` (stereo unspecified), the TGI amounted to 0.398 µM in the assay on NCI-H23 lung; 2.74 µM in the assay on OVCAR-5 ovarian; 0.256 µM in the assay with MDA-N; 0.605 µM in the assay with MCF7 breast; 0.418 µM in the assay on UACC-62 melanoma; 0.288 µM with MALME-3M melanoma. Moreover, the TGI in the assay with SF-539 CNS was found to be 0.36 µM; in the assay with CAKI-1 renal, 5.04 µM; in the assay on M14 melanoma it was 0.238 µM; in the assay on NCI-H522 lung, 0.571 µM; with NCI-H460 lung, 0.344 µM; with HCC-2998 colon, 1.23 µM. The TGI turned out to be 2.1 µM with T-47D breast, 0.454 µM with SNB-19 CNS and 0.838 µM with HCT-116 colon.

Consider `O=C(O)c1ccc([N+]2=Cn3c(nc4ccccc43)C2)cc1`, for which the TGI in the assay on NCI-H23 lung, in the assay with OVCAR-3 ovarian, with OVCAR-5 ovarian, in the assay on MDA-N, with MCF7 breast and with MDA-MB-231 breast was more than 100 µM in each case. The TGI is more than 100 µM in the assay on PC-3 prostate; more than 100 µM with UACC-62 melanoma; 3.05 µM in the assay on MALME-3M melanoma; more than 100 µM in the assay on CAKI-1 renal; more than 100 µM with M14 melanoma; more than 100 µM in the assay with NCI-H522 lung. Moreover, the TGI in the assay on NCI-H460 lung, with HCC-2998 colon, in the assay with T-47D breast, in the assay with SNB-19 CNS and in the assay on HCT-116 colon was more than 100 µM each time.

As for `COc1ccc(/C=C2\N=C3Sc4c(nc[nH]c4=O)N3C2=O)cc1`, the TGI with NCI-H23 lung, in the assay with OVCAR-3 ovarian, in the assay on OVCAR-5 ovarian, in the assay with MDA-N, in the assay with MCF7 breast and in the assay with MDA-MB-231 breast was more than 100 µM each time. The TGI in the assay with PC-3 prostate, with MOLT-4 leukemia, in the assay on MALME-3M melanoma, with SF-539 CNS, in the assay on CAKI-1 renal and in the assay on M14 melanoma was more than 100 µM each time. Besides, the TGI in the assay on NCI-H522 lung, in the assay on HCC-2998 colon, with T-47D breast, in the assay with SNB-19 CNS and in the assay on HCT-116 colon was more than 100 µM throughout.

On to `CCC1(CCSC(=N)N)C(=O)NC(=O)NC1=O`, for which the TGI with NCI-H23 lung, with OVCAR-3 ovarian, in the assay with OVCAR-5 ovarian, with MDA-N, in the assay on MCF7 breast and with MDA-MB-231 breast was more than 100 µM throughout. The TGI in the assay on PC-3 prostate, with UACC-62 melanoma, in the assay on MOLT-4 leukemia, in the assay with MALME-3M melanoma, with SF-539 CNS and in the assay on CAKI-1 renal was more than 100 µM each time. Also, the TGI in the assay on M14 melanoma, in the assay on NCI-H522 lung, in the assay with NCI-H460 lung, in the assay with HCC-2998 colon, in the assay on SNB-19 CNS and with HCT-116 colon was more than 100 µM each time. Further, the TGI in the assay with SR leukemia is more than 100 µM.

Take `CN(Cc1cnc2nc(N)nc(N)c2n1)c1ccc(C(=O)NCS(=O)(=O)O)cc1`: the TGI in the assay with NCI-H23 lung, in the assay with OVCAR-3 ovarian, in the assay on OVCAR-5 ovarian, with MDA-N, with MCF7 breast and in the assay with MDA-MB-231 breast was more than 100 µM each time. In addition, the TGI in the assay on PC-3 prostate, in the assay on UACC-62 melanoma, in the assay with MOLT-4 leukemia, in the assay with MALME-3M melanoma, in the assay on SF-539 CNS and with M14 melanoma was more than 100 µM each time. Besides, the TGI in the assay with NCI-H522 lung, with NCI-H460 lung, in the assay on HCC-2998 colon, in the assay with T-47D breast, in the assay on SNB-19 CNS and in the assay with HCT-116 colon was more than 100 µM each time.

Turning to `O=[N+]([O-])c1ccc2c(c1)Nc1c3ccccc3nc3cccc-2c13`, the TGI in the assay on NCI-H23 lung was more than 55.1 µM; with OVCAR-3 ovarian, 3.8 µM; with OVCAR-5 ovarian, 20.5 µM; in the assay on MDA-N, 15.2 µM; in the assay with MDA-MB-231 breast, more than 25.4 µM; in the assay with PC-3 prostate, 16.9 µM. In addition, the TGI in the assay with UACC-62 melanoma worked out at 18.1 µM; with MOLT-4 leukemia, 34.6 µM; in the assay with MALME-3M melanoma, 19.4 µM; in the assay on SF-539 CNS, 44.3 µM; in the assay with CAKI-1 renal, 18.8 µM; in the assay with M14 melanoma, 16.9 µM. For the same compound, the TGI in the assay with NCI-H522 lung worked out at 33.2 µM; with NCI-H460 lung, 12.5 µM; in the assay on HCC-2998 colon, 0.341 µM; in the assay on T-47D breast it was 43.2 µM; in the assay with SNB-19 CNS it was 47.6 µM; in the assay on HCT-116 colon, 28.8 µM. Besides, in the assay with SR leukemia, the TGI amounted to 8.91 µM.

Turning to `O=[As](O)(O)c1ccc(N=Nc2ccc([As](=O)(O)O)cc2)cc1`, the TGI in the assay on NCI-H23 lung, in the assay on OVCAR-3 ovarian, in the assay with OVCAR-5 ovarian, with MDA-N, with MDA-MB-231 breast and in the assay with PC-3 prostate was more than 100 µM each time. The TGI in the assay with UACC-62 melanoma, in the assay on MOLT-4 leukemia, in the assay on MALME-3M melanoma, in the assay on CAKI-1 renal, in the assay on M14 melanoma and in the assay with NCI-H522 lung was more than 100 µM each time. The TGI with NCI-H460 lung, with T-47D breast, in the assay with SNB-19 CNS, in the assay with HCT-116 colon and with SR leukemia was more than 100 µM throughout.

`CCN(CC)CCCNc1nc(=O)[nH]c(C)c1C(=O)Nc1c2ccccc2nc2ccccc12`: the TGI in the assay on NCI-H23 lung was 42.8 µM; with OVCAR-3 ovarian, 51.6 µM; with OVCAR-5 ovarian, more than 100 µM; in the assay on MDA-N it was 23.7 µM; in the assay on MCF7 breast, more than 100 µM; in the assay on MDA-MB-231 breast, 51.3 µM. The TGI was more than 100 µM with PC-3 prostate; 36.4 µM with UACC-62 melanoma; more than 100 µM with MOLT-4 leukemia; 45.1 µM in the assay with MALME-3M melanoma; 41.8 µM in the assay on SF-539 CNS; 56 µM in the assay with CAKI-1 renal. The TGI in the assay with M14 melanoma is more than 100 µM; with NCI-H522 lung, 21.3 µM; in the assay with HCC-2998 colon, 80.6 µM; with T-47D breast it was 73.5 µM; in the assay with SNB-19 CNS it was 62.2 µM; with HCT-116 colon it was 21.7 µM.

Consider `ClCCN1CCOC1=Nc1ccc2c(c1)CCCC2`, for which the TGI was found to be 26.7 µM with NCI-H23 lung; 29.3 µM with OVCAR-3 ovarian; 32.4 µM in the assay with OVCAR-5 ovarian; 28.3 µM in the assay with MDA-N; 31.7 µM in the assay on MDA-MB-231 breast; 23 µM in the assay with PC-3 prostate. Besides, the TGI in the assay with UACC-62 melanoma came out at 27.9 µM; in the assay with MOLT-4 leukemia, 39.9 µM; with MALME-3M melanoma, 20.8 µM; with SF-539 CNS it was 17.9 µM; with CAKI-1 renal, 53.8 µM; in the assay on M14 melanoma, 33 µM. For the same compound, the TGI in the assay with NCI-H522 lung was 54.9 µM; in the assay on NCI-H460 lung, 61.8 µM; in the assay with HCC-2998 colon it was 30.1 µM; with T-47D breast it was 41.1 µM; with SNB-19 CNS, 17.8 µM; in the assay on HCT-116 colon, 26.8 µM. In addition, the TGI with SR leukemia came to 61.1 µM.
